According to US11986647B2, “Treating autoinflammatory and mitochondrial diseases using an alternating electric field” (Novocure GmbH, priority 2018, dated 2024):
“And” between values parts separate entries of the source, which are not always exact repeats. Identical values can stand only once.

What was measured:
SF188 cells = settings: human, 72 h
Method: (§1) Cells were treated with TMZ (Sigma-Aldrich), Paclitaxel (Sigma-Aldrich) and Mebendazole (Sigma-Aldrich) as a monotherapy or in combination with TTFields. Each of the drugs were administered at their IC50 (high dose) or 10% IC50 (low dose), with the IC50s being determined through drug-response curves.
(§2) TTFields were applied using the Inovitro™ system (Novocure, Haifa). The system consists of two pairs of perpendicular transducer arrays on the outer walls of a ceramic Petri dish. A sinusoidal waveform generator was attached to the transducer arrays to produce alternating electric fields at frequencies between 100-400 kHz and 1.75V/cm intensity. The electric fields alternated orientation of 90° every second. The temperature was measured to be 37° C. inside the dishes by 2 thermistors attached to the ceramic walls.
(§3) PrestoBlue™ was added to each sample at a time-point at a 1:10 dilution. Samples were incubated at 37° C. for 30 minutes. 100 μ1 (triplicate) of the PrestoBlue solution was transferred to a black-bottomed 96-well plate and fluorescence was analyzed via UV-Vis Spectroscopy at excitation/emission wavelengths at 560/590 nm with the FLUOstar Omega (BMG Labtech).

UW228-3 cells = settings: human, 72 h
Method: as §1, §2, §3

brain tumor cell lines = assay: IC50 determination through drug-response curves; assay type: cell-based; settings: range across the brain tumor cell lines
Method: as §1, §3

BXD-1425EPN cells = settings: human, 72 h
Method: as §1, §2, §3

Row | IC50 (brain tumor cell lines) | Compound | reduction of cell viability (SF188 cells) [%] | reduction of cell viability (UW228-3 cells) [%] | reduction of cell viability (BXD-1425EPN cells) [%]
1 | 0.36 to 4.6 nM and 0.4 to 4.6 nM | CC(=O)O[C@H]1C(=O)[C@@]2(C)[C@H]([C@H](OC(=O)c3ccccc3)[C@]3(O)C[C@H](OC(=O)[C@H](O)[C@@H](NC(=O)c4ccccc4)c4ccccc4)C(C)=C1C3(C)C)[C@]1(OC(C)=O)CO[C@@H]1C[C@@H]2O [Paclitaxel] | 30 | 32 | 23
2 | 30 to 1200 nM and 20 to 1200 nM | COC(=O)Nc1nc2ccc(C(=O)c3ccccc3)cc2[nH]1 [Mebendazole] | 39 | 28 | 30
